Bounds are passed on as bounds.

The assay concerns Mycobacterium tuberculosis H37Rv. In words: Mycobacterium tuberculosis Susceptibility Assay (Resazurin). It is filed as cell-based. Conditions: 7H9+ADC medium, 37° C., read-out: MIC (minimal inhibitory concentration).
`O=CN(O)C[C@@H](CC1CCCC1)C(=O)N1CCC[C@H]1C(=O)NC(=O)c1ccc(N2CCOCC2)nc1` [Example 20, N-[1-((2R)-3-cyclopentyl-2-{[formyl(hydroxy)amino]methyl}propanoyl)-L-prolyl]-6-(4-morpholinyl)-3-pyridinecarboxamide]: the MIC is ≤ 32 µg/mL.
The same measure for `N#Cc1cccc(C(=O)NC(=O)[C@@H]2CCCN2C(=O)[C@H](CC2CCCC2)CN(O)C=O)c1` [Example 14, N-[(3-cyanophenyl)carbonyl]-1-((2R)-3-cyclopentyl-2-{[formyl(hydroxy)amino]methyl}propanoyl)-L-prolinamide]: ≤ 32 µg/mL; for `O=CN(O)C[C@@H](CC1CCCC1)C(=O)N1CCC[C@H]1C(=O)NC(=O)c1ccc(C(F)(F)F)nc1` [Example 6, N-[1-((2R)-3-cyclopentyl-2-{[formyl(hydroxy)amino]methyl}propanoyl)-L-prolyl]-6-(trifluoromethyl)-3-pyridinecarboxamide]: ≤ 32 µg/mL; for `O=CN(O)C[C@@H](CC1CCCC1)C(=O)N1CCC[C@H]1C(=O)NC(=O)c1ccccc1` [Example 3, 1-((2R)-3-cyclopentyl-2-{[formyl(hydroxy)amino]methyl}propanoyl)-N-(phenylcarbonyl)-L-prolinamide]: ≤ 32 µg/mL.
The same measure for `COCC(=O)NC(=O)[C@@H]1CCCN1C(=O)[C@H](CC1CCCC1)CN(O)C=O` [Example 5, 1-((2R)-3-cyclopentyl-2-{[formyl(hydroxy)amino]methyl}propanoyl)-N-[(methyloxy)acetyl]-L-prolinamide]: ≤ 32 µg/mL.
With `Cc1cc(C(=O)NC(=O)[C@@H]2CCCN2C(=O)[C@H](CC2CCCC2)CN(O)C=O)n(C)n1` [Example 8, 1-((2R)-3-cyclopentyl-2-{[formyl(hydroxy)amino]methyl}propanoyl)-N-[(1,3-dimethyl-1H-pyrazol-5-yl)carbonyl]-L-prolinamide] the figure was ≤ 32 µg/mL; with `N[C@H]1CC[C@H](OC(=O)NC(=O)[C@@H]2CCCN2C(=O)[C@H](CC2CCCC2)CN(O)C=O)CC1` [Example 19, N-{[(trans-4-aminocyclohexyl)oxy]carbonyl}-1-((2R)-3-cyclopentyl-2-{[formyl(hydroxy)amino]methyl}propanoyl)-L-prolinamide], ≤ 32 µg/mL.
Take `O=CN(O)C[C@@H](CC1CCCC1)C(=O)N1CCC[C@H]1C(=O)NC(=O)c1cccc(F)c1` [Example 11, 1-((2R)-3-cyclopentyl-2-{[formyl(hydroxy)amino]methyl}propanoyl)-N-[(3-fluorophenyl)carbonyl]-L-prolinamide]: the MIC is ≤ 32 µg/mL.
Consider `O=CN(O)C[C@@H](CC1CCCC1)C(=O)N1CCC[C@H]1C(=O)NC(=O)c1ccncc1` [Example 17, N-[1-((2R)-3-cyclopentyl-2-{[formyl(hydroxy)amino]methyl}propanoyl)-L-prolyl]-4-pyridinecarboxamide], for which the MIC was ≤ 32 µg/mL.
With `Cc1ccc(C(=O)NC(=O)[C@@H]2CCCN2C(=O)[C@H](CC2CCCC2)CN(O)C=O)cc1F` [Example 12] the figure was ≤ 32 µg/mL; with `O=CN(O)C[C@@H](CC1CCCC1)C(=O)N1CCC[C@H]1C(=O)NC(=O)c1ccccc1F` [Example 10, 1-((2R)-3-cyclopentyl-2-{[formyl(hydroxy)amino]methyl}propanoyl)-N-[(2-fluorophenyl)carbonyl]-L-prolinamide], ≤ 32 µg/mL.
With `Cc1cc(C(=O)NC(=O)[C@@H]2CCCN2C(=O)[C@H](CC2CCCC2)CN(O)C=O)nn1C` [Example 7, 1-((2R)-3-cyclopentyl-2-{[formyl(hydroxy)amino]methyl}propanoyl)-N-[(1,5-dimethyl-1H-pyrazol-3-yl)carbonyl]-L-prolinamide] the figure was ≤ 32 µg/mL; with `Cc1cc(C(=O)NC(=O)[C@@H]2CCCN2C(=O)[C@H](CC2CCCC2)CN(O)C=O)no1` [Example 9, 1-((2R)-3-cyclopentyl-2-{[formyl(hydroxy)amino]methyl}propanoyl)-N-[(5-methyl-3-isoxazolyl)carbonyl]-L-prolinamide], ≤ 32 µg/mL.
The same measure for `O=CN(O)C[C@@H](CC1CCCC1)C(=O)N1CCC[C@H]1C(=O)NC(=O)c1ccc(F)cc1` [Example 1, 1-((2R)-3-cyclopentyl-2-{[formyl(hydroxy)amino]methyl}propanoyl)-N-[(4-fluorophenyl)carbonyl]-L-prolinamide]: ≤ 32 µg/mL; for `CC(=O)NC(=O)[C@@H]1CCCN1C(=O)[C@H](CC1CCCC1)CN(O)C=O` [Example 2, N-acetyl-1-((2R)-3-cyclopentyl-2-{[formyl(hydroxy)amino]methyl}propanoyl)-L-prolinamide]: ≤ 32 µg/mL.
In the case of `O=CN(O)C[C@@H](CC1CCCC1)C(=O)N1CCC[C@H]1C(=O)NC(=O)c1c(F)cccc1F` [Example 18, 1-((2R)-3-cyclopentyl-2-{[formyl(hydroxy)amino]methyl}propanoyl)-N-[(2,6-difluorophenyl)carbonyl]-L-prolinamide], the MIC is ≤ 32 µg/mL.
The same measure for `O=CN(O)C[C@@H](CC1CCCC1)C(=O)N1CCC[C@H]1C(=O)NC(=O)c1cc(F)ccc1F` [Example 15, 1-((2R)-3-cyclopentyl-2-{[formyl(hydroxy)amino]methyl}propanoyl)-N-[(2,5-difluorophenyl)carbonyl]-L-prolinamide]: ≤ 32 µg/mL.

The values are drawn from US7982053B2, “Peptide deformylase inhibitors” (GlaxoSmithKline LLC, priority 2005, dated 2011).
